According to patent US20220153732A1, “PROTEIN SECRETION INHIBITORS” (KEZAR LIFE SCIENCES, priority 2019, published 2022):

Tests used:
Assay type in all cases: cell-based
[1] = tested on: IL-2-FL/Gaussia Luciferase; assay: Dox Induced IL2-FL-Gluc Assay; settings: 24 hr doxycycline induction, 293FRT/TO cells, Gaussia luciferase signal; read-out: 24 hr Dox Inducible IL2FLGIuc 293FRT/TO: Mean IC50
Method: (§1) Transfected cells were selected for resistance to the selectable markers Hygromycin and Blasticidin to create a stable cell line that contained the IL-2-FL/Gaussia Luciferase cDNA insert whose expression was regulated under the T-RExTM system. The day before assay, cells were trypsinized and plated in 384-well tissue culture plates. The next day, compound dilutions in DMSO/media containing doxycycline were added to the wells and incubated at 37° C., 5% CO2. […] For chemical structures that include one or more stereoisomers, but are illustrated without indicating stereochemistry, the assay data refers to a mixture of stereoisomers.

[2] = tested on: human multiple myeloma cell line NCI-H929; assay: H929 Cell Viability Assay; settings: 48 hr, NCI-H929 cells, Celltiter-Glo, read-out: 48 hr H929 Viability Celltiter-Glo: Mean EC50
Method: (§2) Plates were incubated at 37° C., 5% CO2 for 48 hours. After 48 hours, Celltiter-Glo® (Promega) was added to each well and luciferase signal was quantified using Tecan Infinite M1000 Pro for cell viability determination.
(§3) For chemical structures that include one or more stereoisomers, but are illustrated without indicating stereochemistry, the assay data refers to a mixture of stereoisomers.

[3] = tested on: human multiple myeloma cell line U266B1; assay: U266 Cell Viability Assay; settings: U-266, 48 hr, U266B1 cells, Celltiter-Glo, read-out: 48 hr U266 Viability Celltiter-Glo: Mean EC50
Method: as §2, with “Cells were plated in 384-well tissue culture plates and treated with compound dilutions in DMSO/media. Plates” for “Plates”
as §3

[4] = tested on: PD1-ss+10aa/Gaussia Luciferase; assay: Dox-Induced PD1-ss-Gluc Assay; settings: 24 hr doxycycline induction, 293FRT/TO cells, Gaussia luciferase signal; read-out: 24 hr Dox Inducible PD1ssGluc 293FRT/TO: Mean IC50
Method: (§4) Transfected cells were selected for resistance to the selectable markers Hygromycin and Blasticidin to create a stable cell line that contained the PD1-ss+10aa/Gaussia Luciferase cDNA insert whose expression was regulated under the T-REx™ system. The day before assay, cells were trypsinized and plated in 384-well tissue culture plates. The next day, compound dilutions in DMSO/media containing doxycycline were added to the wells and incubated at 37° C., 5% CO2.
as §3

[5] = tested on: HER3-ss+4aa/Gaussia Luciferase; assay: Dox-Induced Her3-ss-Gluc Assay; settings: 24 hr doxycycline induction, 293FRT/TO cells, Gaussia luciferase signal; read-out: 24 hr Dox Inducible Her3(ss + 4)Gluc 293FRT/TO: Mean IC50
Method: as §4, with “HER3-ss+4aa/Gaussia” for “PD1-ss+10aa/Gaussia”
as §3

[6] = tested on: TNFα-FL/Gaussia Luciferase; assay: Dox Induced TNFα-FL-Gluc Assay; settings: 24 hr doxycycline induction, 293FRT/TO cells, Gaussia luciferase signal; read-out: 24 hr Dox Inducible TNFaFLGluc 293FRT/TO: Mean IC50
Method: as §1, with “TNFα-FL/Gaussia” for “IL-2-FL/Gaussia”

Structure (SMILES)	IC50 [1]	EC50 [2]	EC50 [3]	IC50 [4]	IC50 [5]	IC50 [6]
O=C(Nc1nc(CCc2ccccc2)cs1)c1cccn1Cc1ccncc1 [Compound A13, N-(4-phenethylthiazol-2-yl)-1-(pyridin-4-ylmethyl)-1H-pyrrole-2-carboxamide]	648 nM	18800 nM	> 25000 nM	148 nM	382 nM	3300 nM
O=C(Nc1nc(/C=C/c2ccccc2)cs1)c1cccn1Cc1ccncc1 [Compound A14, 1-(pyridin-4-ylmethyl)-N-(4-styrylthiazol-2-yl)-1H-pyrrole-2-carboxamide]	1050 nM	> 25000 nM	> 25000 nM	153 nM	568 nM	5110 nM
CC(C)(OCC(F)(F)F)c1csc(NC(=O)c2cccn2Cc2ccncc2)n1 [Compound A15, 1-(pyridin-4-ylmethyl)-N-(4-(2-(2,2,2-trifluoroethoxy)propan-2-yl)thiazol-2-yl)-1H-pyrrole-2-carboxamide]	110 nM	16600 nM	> 25000 nM	169 nM	318 nM	5430 nM
CC(C)OC(C)(C)c1csc(NC(=O)c2cccn2Cc2ccncc2)n1 [Compound A16, N-(4-(2-isopropoxypropan-2-yl)thiazol-2-yl)-1-(pyridin-4-ylmethyl)-1H-pyrrole-2-carboxamide]	266 nM	> 23900 nM	> 25000 nM	185 nM	377 nM	5010 nM
O=C(Nc1nc(Cc2ccccc2)cs1)c1cccn1Cc1ccncc1 [Compound A17, N-(4-benzylthiazol-2-yl)-1-(pyridin-4-ylmethyl)-1H-pyrrole-2-carboxamide]	804 nM	20800 nM	> 25000 nM	191 nM	560 nM	2240 nM
C[C@@H](OC(C)(C)c1csc(NC(=O)c2cccn2Cc2ccncc2)n1)c1ccccc1 [Compound A18, (R)-N-(4-(2-(1-phenylethoxy)propan-2-yl)thiazol-2-yl)-1-(pyridin-4-ylmethyl)-1H-pyrrole-2-carboxamide]	718 nM	15100 nM	> 25000 nM	226 nM	461 nM	1350 nM
O=C(Nc1nc(C(F)(F)F)cs1)c1cccn1Cc1ccncc1 [Compound A19, 1-(pyridin-4-ylmethyl)-N-(4-(trifluoromethyl)thiazol-2-yl)-1H-pyrrole-2-carboxamide]	529 nM	> 25000 nM	> 25000 nM	246 nM	492 nM	8540 nM
Cc1sc(NC(=O)c2cccn2Cc2ccncc2)nc1C(C)OC(C)C (stereo not drawn) [Compound A20, N-(4-(1-isopropoxyethyl)-5-methylthiazol-2-yl)-1-(pyridin-4-ylmethyl)-1H-pyrrole-2-carboxamide]	351 nM	> 25000 nM	> 25000 nM	248 nM	510 nM	7170 nM
CC(c1ccccc1)c1csc(NC(=O)c2cccn2Cc2ccncc2)n1 (stereo not drawn) [Compound A21]	502 nM	> 25000 nM	> 25000 nM	259 nM	590 nM	3680 nM
CC1(C)CCc2sc(NC(=O)c3cccn3Cc3ccncc3)nc21 [Compound A22, N-(4,4-dimethyl-5,6-dihydro-4H-cyclopenta[d]thiazol-2-yl)-1-(pyridin-4-ylmethyl)-1H-pyrrole-2-carboxamide]	460 nM	> 25000 nM	> 25000 nM	271 nM	503 nM	8830 nM
CCC(C)c1csc(NC(=O)c2cccn2Cc2ccncc2)n1 (stereo not drawn) [Compound A23]	429 nM	> 25000 nM	> 25000 nM	290 nM	447 nM	5470 nM
Cc1cnccc1Cn1cccc1C(=O)Nc1nc(C(C)(C)OC(C)C)cs1 [Compound A24, N-(4-(2-isopropoxypropan-2-yl)thiazol-2-yl)-1-((3-methylpyridin-4-yl)methyl)-1H-pyrrole-2-carboxamide]	477 nM	> 25000 nM	> 25000 nM	303 nM	619 nM	11700 nM
CC(C)OC(C)(C)c1csc(NC(=O)c2cccn2Cc2ccncc2F)n1 [Compound A25, 1-((3-fluoropyridin-4-yl)methyl)-N-(4-(2-isopropoxypropan-2-yl)thiazol-2-yl)-1H-pyrrole-2-carboxamide]	490 nM	> 25000 nM	> 25000 nM	314 nM	692 nM	9980 nM
CC(C)c1csc(NC(=O)c2cccn2Cc2ccncc2)n1 [Compound A26, N-(4-isopropylthiazol-2-yl)-1-(pyridin-4-ylmethyl)-1H-pyrrole-2-carboxamide]	759 nM	> 25000 nM	> 25000 nM	319 nM	817 nM	10700 nM
CCOC(C)(C)c1csc(NC(=O)c2cccn2Cc2ccncc2)n1 [Compound A27, N-(4-(2-ethoxypropan-2-yl)thiazol-2-yl)-1-(pyridin-4-ylmethyl)-1H-pyrrole-2-carboxamide]	320 nM	> 25000 nM	> 25000 nM	445 nM	822 nM	9520 nM
CC(C)OC(C)c1csc(NC(=O)c2cccn2Cc2ccncc2)n1 (stereo not drawn) [Compound A28, N-(4-(1-isopropoxyethyl)thiazol-2-yl)-1-(pyridin-4-ylmethyl)-1H-pyrrole-2-carboxamide]	401 nM	> 25000 nM	> 25000 nM	462 nM	752 nM	3950 nM
CC(F)(F)c1csc(NC(=O)c2cccn2Cc2ccncc2)n1 [Compound A29, N-(4-(1,1-difluoroethyl)thiazol-2-yl)-1-(pyridin-4-ylmethyl)-1H-pyrrole-2-carboxamide]	935 nM	> 25000 nM	> 25000 nM	488 nM	1240 nM	19600 nM
CC(C)OC(C)(C)c1nc(NC(=O)c2cccn2Cc2ccncc2)sc1Br [Compound A30]	927 nM	22700 nM	> 25000 nM	552 nM	809 nM	11800 nM
O=C(Nc1nc(C2CCC2)cs1)c1cccn1Cc1ccncc1 [Compound A31]	1340 nM	> 25000 nM	> 25000 nM	596 nM	1630 nM	11800 nM
CCc1nc(NC(=O)c2cccn2Cc2ccncc2)sc1C [Compound A32, N-(4-ethyl-5-methylthiazol-2-yl)-1-(pyridin-4-ylmethyl)-1H-pyrrole-2-carboxamide]	1980 nM	> 25000 nM	> 25000 nM	633 nM	1330 nM	> 20300 nM
O=C(Nc1nc(/C=C/c2ccccc2)cs1)c1cccn1CCCc1ccncc1 [Compound A33, 1-(3-(pyridin-4-yl)propyl)-N-(4-styrylthiazol-2-yl)-1H-pyrrole-2-carboxamide]	2470 nM	8990 nM	6890 nM	663 nM	1620 nM	> 25000 nM
O=C(Nc1ncc(Cc2ccccc2)s1)c1cccn1Cc1ccncc1 [Compound A34, N-(5-benzylthiazol-2-yl)-1-(pyridin-4-ylmethyl)-1H-pyrrole-2-carboxamide]	4240 nM	> 25000 nM	> 25000 nM	674 nM	2420 nM	> 25000 nM
